Laboratory results as given in article PMC9513972, “Carboxypeptidase G and pterin deaminase metabolic pathways degrade folic acid in Variovorax sp. F1” (BMC Microbiology, 2022).

Tested on: T1, recombinant PDA (rPDA) from Variovorax sp. F1
T1 construct: full-length gene product, 399 residues; 45 kDa band; pET28a NdeI/XhoI (N-terminal His tag), E. coli BL21 (DE3), HisTrap
Assay: HPLC initial velocity, Michaelis-Menten fit
Type: biochemical
Conditions: 50 mM Tris-HCl pH 7.5, 30 °C
Source text: HPLC initial velocity, Michaelis-Menten fit on recombinant PDA (rPDA) from Variovorax sp.

Row | Structure (SMILES) | Km (deamination to deaminofolic acid) [µM] | Km (deamination to deaminopteroic acid) [µM]
1 | Nc1nc2ncc(CNc3ccc(C(=O)N[C@@H](CCC(=O)O)C(=O)O)cc3)nc2c(=O)[nH]1 [folic acid] | 280 ± 60 | –
2 | Nc1nc2ncc(CNc3ccc(C(=O)O)cc3)nc2c(=O)[nH]1 [pteroic acid] | – | 1500 ± 600
